Experimental data reported in US20260256962A1, “PRODRUGS FOR COMPOUNDS SPECIFIC TO GRANZYME B AND USES THEREOF” (CYTOSITE BIOPHARMA INC., priority 2021, published 2026).

Columns and labels:
[1] = In vivo conversion of [^18F] granzyme B prodrugs to active form, radioactive metabolite screening of blood by radio-HPLC; parameters: species or system male CD-1 mice; settings: for conversion to the active form: in vivo, mouse plasma 5 minutes after administration (FIGS. 4C, 5C); for 5 min (% active form in blood) / 15 min (% active form in blood): male CD-1 mice, tail vein injection, radio-HPLC; for 5 min (% active form in blood): blood 5 minutes post-injection; for 15 min (% active form in blood): blood 15 minutes post-injection
From the text: In vivo conversion of prodrugs was monitored by radioactive metabolite screening studies performed by injection of [^18F] granzyme B tracers in male CD-1 mice followed by analysis of extracted blood samples by radiometric HPLC. Results are reported as percent active form present in blood (Table 11).
Briefly, male CD-1 mice were anesthetized prior to dosing with approximately 250 μCi [^18F] granzyme B tracer via tail vein injection (n=3 mice/timepoint). For blood collection, mice were sacrificed following cardiac exsanguination with a syringe pre-rinsed with sodium heparin at 5 and 15 minutes post-injection and samples were prepared for analysis via radio-HPLC.
Blood samples were centrifuged at 1500 RCF for 5 minutes to allow for separation of plasma. Plasma samples were mixed with two volumes of methanol, vortexed for 30 seconds, and then centrifuged at 1500 RCF for 2 minutes. The supernatant was separated from the pellet and diluted 1:4 with PBS buffer pH 7.4 or water prior to analysis by HPLC.
Samples were then analyzed on an Agilent 1290 series UPLC UV coupled with a BGO coincidence detector. The HPLC method utilized 2) Phenomenex Monolithic C18 (100×4.6 mm); 100-200 μL injection volume; flow-rate: 1.2 mL/min; solvent for A: 20 mM ammonium acetate in water; solvent for B: 100% methanol; gradient: initial hold at 5% B hold for 1 min, 5% to 40% in 7 min, hold 40% B for 2 min, increase from 40% to 95% B in 1 min, hold 95% B for 2 min, and then return to 5% B to reequilibrate.

granzyme B = target: T1, granzyme B (Homo sapiens, UniProt P10144); assay: In vivo PET/CT imaging of ^18F-granzyme B tracers in Matrigel mouse model of active and pro-form granzyme B; parameters: species or system female nude athymic mice; settings: nude athymic mice, i.v. radiotracer, static PET 75 minutes post-injection
T1 construct: In Vivo Imaging of ^18F-Granzyme B Tracers in a Matrigel Mouse Model of Active and Pro-Form Granzyme B; purchased Enzo Life Sciences; host or cells: purified from human lymphocytes
Description: Female nude athymic (5-6 weeks, 15-30 g) mice were purchased from Jackson Laboratories. Both granzyme B (Human lymphocytes, Enzo Life Sciences) and inactivated human pro-form granzyme B (R&D Systems) were also commercially purchased. […] Each granzyme B enzyme were then brought up to a final concentration of 0.05 μg/ul using phosphate buffered saline (GE, Hyclone). Matrigel (65 μl, Corning) was mixed with 15 μl of 0.75 μg of each granzyme B enzyme (granzyme B and pro-form granzyme B) within each Eppendorf tube. The mice were then anesthetized with 2.5-3% isoflurane mixed with oxygen. Approximately 60-80 μl of granzyme B/Matrigel or the pro-form granzyme B/Matrigel were then injected using a 28-gauge×0.5-inch insulin syringe (Terumo) to form implants on the right and left shoulder flanks of the mice. […] After the radiotracer injection, the catheter was removed and measured for any remaining residual radioactivity. […] PET signal in the granzyme B implants were quantified by manually drawing regions of interest (ROIs) over the Matrigel implants based on the fused PET/CT images and the corresponding activity values were determined with VivoQuant (Invicro, Massachusetts). […] Target to background ratios (TBR's) were then calculated by dividing the granzyme B % ID/g value by the pro-form granzyme B % ID/g value.

T1 sequence (P10144 21-247): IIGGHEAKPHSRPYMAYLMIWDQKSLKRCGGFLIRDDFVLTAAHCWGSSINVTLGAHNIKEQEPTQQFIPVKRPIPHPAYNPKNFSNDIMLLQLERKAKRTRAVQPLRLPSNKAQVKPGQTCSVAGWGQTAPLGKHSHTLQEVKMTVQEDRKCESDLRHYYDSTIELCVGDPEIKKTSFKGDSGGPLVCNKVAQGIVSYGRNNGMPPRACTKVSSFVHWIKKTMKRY

SMILES | conversion to the active form [1] | 5 min (% active form in blood) [1] [%] | 15 min (% active form in blood) [1] [%] | differentiation in Matrigel (granzyme B vs pro-form granzyme B implants) (granzyme B)
CC[C@H](C)[C@H](NC(=O)CCNC(=O)CCNC(=O)[C@@H](CCC(=O)O)NC(=O)CN1CCC(CN2CCN3CCN(CC2)CC(=O)[O][Al]([F])[O]C(=O)C3)CC1)C(=O)N[C@H]1CCc2cccc3c2N(C1=O)[C@H](C(=O)N[C@H]1CC(=O)O[C@@H]1OC)C3 [[^18F] 3-Al] | slow conversion to the active form | 13 | 17 | poor differentiation in Matrigel
CC[C@H](C)[C@H](NC(=O)COCCNC(=O)[C@@H](CCC(=O)O)NC(=O)[C@@H](CCC(=O)O)NC(=O)CN1CCC(CN2CCN3CCN(CC2)CC(=O)[O][Al]([F])[O]C(=O)C3)CC1)C(=O)N[C@H]1CCc2cccc3c2N(C1=O)[C@H](C(=O)N[C@H]1CC(=O)O[C@H]1OC)C3 [[^18F] 7-Al] | – | 69 | 78 | –
CC[C@H](C)[C@H](NC(=O)COCCNC(=O)[C@@H](CCC(=O)O)NC(=O)[C@@H](CCC(=O)O)NC(=O)CN1CCC(CN2CCN3CCN(CC2)CC(=O)[O][Al]([F])[O]C(=O)C3)CC1)C(=O)N[C@H]1CCc2cccc3c2N(C1=O)[C@H](C(=O)N[C@H]1CC(=O)O[C@@H]1OC)C3 [[^18F] 6-Al] | – | 11 | 16 | –
CC[C@H](C)[C@H](NC(=O)CCNC(=O)CCNC(=O)[C@@H](CCC(=O)O)NC(=O)CN1CCC(CN2CCN3CCN(CC2)CC(=O)[O][Al]([F])[O]C(=O)C3)CC1)C(=O)N[C@H]1CCc2cccc3c2N(C1=O)[C@H](C(=O)N[C@H]1CC(=O)O[C@H]1OC)C3 [[^18F] 4-Al] | rapid conversion to the active form | 92 | 94 | good differentiation in Matrigel
CCO[C@@H]1OC(=O)C[C@@H]1NC(=O)[C@@H]1Cc2cccc3c2N1C(=O)[C@@H](NC(=O)[C@@H](NC(=O)CCNC(=O)CCNC(=O)[C@@H](CCC(=O)O)NC(=O)CN1CCC(CN2CCN4CCN(CC2)CC(=O)[O][Al]([F])[O]C(=O)C4)CC1)[C@@H](C)CC)CC3 [[^18F] 5-Al] | – | 98 | 100 | –
CCO[C@@H]1OC(=O)C[C@@H]1NC(=O)[C@@H]1Cc2cccc3c2N1C(=O)[C@@H](NC(=O)[C@@H](NC(=O)COCCNC(=O)[C@@H](CCC(=O)O)NC(=O)[C@@H](CCC(=O)O)NC(=O)CN1CCC(CN2CCN4CCN(CC2)CC(=O)[O][Al]([F])[O]C(=O)C4)CC1)[C@@H](C)CC)CC3 [[^18F] 8-Al] | – | 86 | 100 | –
CC[C@H](C)[C@H](NC(=O)CCNC(=O)CCNC(=O)CN(CC(=O)O)C(=O)CN1CCC(CN2CCN3CCN(CC2)CC(=O)[O][Al]([F])[O]C(=O)C3)CC1)C(=O)N[C@H]1CCc2cccc3c2N(C1=O)[C@H](C(=O)N[C@H]1CC(=O)O[C@H]1OC)C3 [[^18F] 9-Al] | – | 90 | 100 | –
